Experiments:
EFM4−/− cells = experiment: Survival (MTT conversion) 24 h after methyl methane-sulfonate treatment, TC-PTP knock-out cell line; assay type: cell-based, murine; settings: 5 μM MMS, 24 h after treatment, FIG. 5D
Protocol: (§1) Cell proliferation and survival. Primary MEF+/+ and −/−, and TC-PTP+/+ and TC-PTP−/− cell, lines were seeded in 24-well cell culture plates at a density of […] in DMEM with 10% FBS. Cell number was determined after trypsinization by trypan blue exclusion or by MTT assay (Mosmann (1983) J. Immunol. Methods. 62:55-63) at day 1, 3, 5 and 7 after plating. Cells were treated with gamma- or UV-irradiation at doses indicated using a Gammacell 1000 (Atomic Energy of Canada) with a 137Cs source and Stratalinker (Stratagene) respectively. After irradiation, the cells were plated in triplicate on 24-well plates. Survival was evaluated by MTT viability assays 48 hr post-radiation.
(§2) The function of cell cycle checkpoints is to verify the physical status of the genomic DNA. […] To assess the effects of DNA-damaging agents such as γ-radiation, UV-C radiation and methyl methane-sulfonate (MMS) treatment on TC-PTP−/− cells, we first evaluated at different times after treatment, the effect of 1000 rads of γ-radiation on the survival of the EFM7+/+, EFM3+/− and EFM4−/− cells. […] Conversion of MTT was evaluated as a measure of survival at 8, 24 and 48 h after the treatment and it is expressed as the percentage of OD570 measurements of treated to untreated wells. […]
(§3) Another DNA-damaging agent used was MMS, which is a DNA alkylating agent that results in single-strand breaks. […] Results are expressed as in A.

EFM7+/+ cells = experiment: Survival (MTT conversion) 24 h after methyl methane-sulfonate treatment, wild-type cell line; assay type: cell-based, murine; settings: 5 μM MMS, 24 h after treatment, FIG. 5D
Protocol: as §1, §2, §3

With `COS(C)(=O)=O` [MMS, methyl methane-sulfonate] the “viability after MMS treatment” value (EFM4−/− cells) was “strong decrease in the viability” and the “viability after MMS treatment” value (EFM7+/+ cells) was “slight decrease”.
